Results on three compounds are retold here after patent US20250281609A1, “COMPOSITION FOR TREATING OR PREVENTING CANCER” (ORGANOIDSCIENCES LTD., priority 2021, published 2025).

Test [1] has as its system colorectal cancer organoids. The test can be described thus: Colorectal cancer organoid viability (growth rate and death rate). Type of test: cell-based, human. To be noted: for increase in efficacy (cancer organoid death) of the combination of the HVEM inhibitor with the HSP inhibitor compared to HVEM inhibitor alone: 72 hours after treatment, FIG. 6. As for the experimental part:
To evaluate whether the combination of HVEM inhibitor and HSP inhibitor exerts a synergistic effect as a cancer preventive or therapeutic agent, we conducted the following experiment. Specifically, colorectal cancer organoids were treated with either an HVEM inhibitor alone, an HSP inhibitor alone, or a combination of both. The anticancer efficacy of the combination treatment was assessed by measuring cancer organoid viability.
For HVEM inhibitor, anti-HVEM antibodies (CW10, Santa Cruz, #sc-21718; R&D Systems, #MAB356-SP) were used at 10 nM. For inhibitor of HVEM ligands, anti-BTLA antibodies (Mybiosource, #MBS633646; Adipogen, #AG-20B-0049) were used at 10 nM. For HSP inhibitors, Luminespib (AUY922, Selleck, #s1069; HSP90-targeting), Ganetespib (STA-9090, Selleck, #s1159; HSP90-targeting), Tanespimycin (17-AAG, Selleck, #s1141; HSP90-targeting), BIIB021 (Selleck, #s1175; HSP90-targeting), Onalespib (AT13387, Selleck, #s1163; HSP90-targeting), HSP990 (#s7097; Selleck, HSP90-targeting), KNK437 (#s7750; Selleck, HSP40-targeting), and VER-155008 (Selleck, #s7751; HSP70-targeting) were used.
The viability of cancer organoids was assessed through growth rate and death rate of cancer organoids as follows.

The test system of test [2] is colorectal cancer organoids xenograft tumors. The test can be described thus: Mouse tumor xenograft model using colorectal cancer organoids, humanized with PBMCs. Particulars: harvested tumor tissues, FIG. 10. Type of test: in vivo. As for the experimental part:
Specifically, monotherapy with an HVEM inhibitor, monotherapy with a BTLA inhibitor, monotherapy with an HSP inhibitor, combination therapy with an HVEM inhibitor and an HSP inhibitor, combination therapy with a BTLA inhibitor and an HSP inhibitor, or combination therapy with an HVEM inhibitor, a BTLA inhibitor, and an HSP inhibitor was administered to a mouse tumor xenograft model using colorectal cancer organoids. In addition, since the effect of inhibitors of HVEM and its ligand requires the presence of immune cells, PBMCs were introduced into the mice bearing the xenograft tumors to generate humanized mice. The inhibitors were administered a total of four times on days 15, 18, 21, and 24 after tumor transplantation.
As an HVEM (Herpesvirus entry mediator) inhibitor, an anti-HVEM antibody (CW10, Santa Cruz, #sc-21718) was used at a dose of 1 mg/kg; as an inhibitor of the HVEM ligand, an anti-BTLA antibody (Mybiosource, #MBS633646) was used at a dose of 1 mg/kg; and as an HSP (heat shock protein) inhibitor, Luminespib (AUY922, Selleck, #s1069; targeting HSP90) was used at a dose of 0.5 mg/kg.
From day 7 after tumor implantation, tumor size was measured three times per week. After completion of the experiment, the shape of the harvested tumors was analyzed, and tumor weight was measured. […]
(In xenograft studies the graft and the host belong to different species.)

The mark [3] stands for this setting: colorectal cancer organoids, increasing concentrations.

SMILES strings stand for the structures.

Turning to `CC(C)c1cc(-c2n[nH]c(=O)n2-c2ccc3c(ccn3C)c2)c(O)cc1O` [STA-9090, Ganetespib], the “increase in efficacy (cancer organoid death) of the combination of the HVEM inhibitor with the HSP inhibitor compared to HVEM inhibitor alone” value (from here on “increase in efficacy … to HVEM inhibitor alone”) in test [1] (colorectal cancer organoids) is “approximately 2.9 fold”.

Turning to `CCNC(=O)c1noc(-c2cc(C(C)C)c(O)cc2O)c1-c1ccc(CN2CCOCC2)cc1` [AUY922, Luminespib], the “hCD8+ T cells infiltrated into the tumor tissue (IHC)” value in test [2] was “barely detected”. The “increase in cancer organoid death rate, high concentration vs low concentration” value in test [1] (100 nM or higher compared to 1 to 5 nM) is on record as greater than 3.6 fold. Further, the “increase in efficacy … to HVEM inhibitor alone” value in test [1] (colorectal cancer organoids) was no less than 3.4 fold. Besides, in test [1] (setting [3]), the “cancer organoid death rate” value is reported as “increased cancer organoids death rate” and the “growth rate of cancer organoids over time” value is reported as “reduced growth over time”.

Regarding `C=CCNC1=C2C[C@@H](C)C[C@H](OC)[C@H](O)[C@@H](C)/C=C(\C)[C@H](OC(N)=O)[C@@H](OC)/C=C\C=C(/C)C(=O)NC(=CC1=O)C2=O` [17-AAG, Tanespimycin], the “increase in efficacy … to HVEM inhibitor alone” value in test [1] (colorectal cancer organoids) is “approximately 2.9 fold”.
